Paper PMC8819291, “Adaptively evolved human oral actinomyces‐sourced defensins show therapeutic potential” (EMBO Molecular Medicine, 2021)
Where a SMILES comes first, the peptide text is derived from it. Bridges are numbered along the chain shown (N, C = ends).

Tests used:
[1] = undiluted human serum (Human Serum AB), 0, 24 and 48 h, 37°C; read-out MRSA P1374, 1.0 nmol/well
[2] = test system: Methicillin‐resistant coagulase negative Staphylococci P1369; test: Inhibition-zone assay (lethal concentration); format: cell-based, Staphylococcus; conditions: Broth Medium, 37°C
Source text: Bacterial media used here included: Luria‐Bertani (LB) medium, THY medium (30 g Todd Hewitt broth and 5 g Yeast extract per liter), and tryptic soy broth (TSB) (Oxoid, Basingstoke, UK); Broth medium and brain–heart infusion (BHI) medium (Beijing Landbridge technology Limited by Share Ltd., Beijing, China); Potato dextrose (PD) medium (self‐prepared).
In brief, an overnight bacterial culture from a single colony was inoculated into fresh medium and grew to late log‐phase. A 10‐μl aliquot of each culture was diluted in 6‐ml pre‐heated medium containing 0.8% agar. The mixture was spread on a 9‐cm Petri dish, giving a depth of 1 mm. After settling, 3‐mm wells were punched in the plate and then 2‐μl peptide samples of different concentrations were added to each well. The agar plates were incubated overnight at indicated temperatures (Table EV4). A lethal concentration (C L ) was calculated from a plot of d^2 against log n, where d is the diameter (in cm) and n is the amount of sample applied in the well (in nmol). The plot is linear, and thus C L can be calculated from the slope (k) and the intercept (m) of this plot.

[3] = test system: HEK 293; conditions: 25 µM (Appendix Fig S14), 72 h, CCK‐8
Protocol: Cells were cultured at 37°C in 5% CO2: 95% air incubator in Minimum Essential Medium (MEM) supplemented with 10% (v/v) fetal bovine serum (FBS). Cells were seeded at a density of 7 × 10^3 cells per well in 96‐well plates and incubated for 24 h. Media were then replaced with 200 μl of media containing various concentrations of peptides. The cells were incubated for 72 h and cytotoxicity was assessed with CCK‐8 Kits (Dojindo Molecular Technologies, Tokyo, Japan). Absorbance was detected at 450 nm with the TECAN Infinite M200 microplate reader (Tecan, Durham, USA).

[4] = Circular dichroism spectroscopy with UMP; format: binding; conditions: 50 mM NH4OAc, room temperature
Protocol: The spectra were measured at room temperature from 300 to 200 nm by using a quartz cell of 1.0 mm thickness. Data were collected at 1‐nm intervals with a scan rate of 2 nm/s.

[5] = test system: BM cells (Bacillus megaterium); test: Scanning electron microscope observation of cell deformation; format: cell-based; conditions: 10 × C L, 37°C, 90 min
Protocol: After centrifugation, bacterial pellets were fixed with 2.5% glutaraldehyde for 1 h, followed by washing three times with PBS buffer (pH 7.3). Dehydration was carried out with a series of graded ethanol solutions. Cells were then dried by BAL‐TEC CPD‐030 critical point dryer (Bal‐Tec AG, Balzers, Liechtenstein) before being mounted on carbon tape and sputtered with a gold coating (BAL‐TEC SCD005). Images were visualized in FEI QUANTA 450.

[6] = test system: SM (Streptococcus mutans); test: Killing kinetics assay; format: cell-based; conditions: peptide dose 4 × C L
Protocol: In brief, SM was grown overnight in broth medium and diluted in fresh medium to 1 × 10^8 CFU/ml. […] Viable cell counts were obtained after 24 h of incubation at 37°C. Bacterial growth in the medium without peptides was used as a control.

[7] = test system: fresh erythrocytes from the female ICR mice; test: Hemolysis assay; format: cell-based, Mus musculus
Protocol: Hemolytic activity of peptides against fresh erythrocytes from the female ICR mice (Mus musculus) (25 g, 6 weeks of age) was assayed according to the standard method (Zhu et al, [2012]). Peptides were diluted with 0.9% NaCl to the indicated concentration. The percentage of hemolysis is determined as (A pep–A blank)/(A tot–A blank) × 100, in which “A” represents absorbance measured at 570 nm. A blank and A pep were evaluated in the absence or presence of peptides. One hundred percent hemolysis (A tot) was obtained in the presence of 1% Triton X‐100.

[8] = test system: A549 cells; test: Peptide-induced IL-8 release (ELISA); format: cell-based, human; conditions: 24 h
Protocol: A549 and HL‐60 cells were purchased from the Cell Resource Center of the Chinese Academy of Medical Sciences (Beijing, China). They were tested for mycoplasma contamination with the Mycoplasma Detection Kit (Solarbio, China) and only negative cultures were used in our experiments. The cells were cultured in complete Dulbecco’s Modified Eagle Medium (DMEM) supplemented with 10% fetal bovine serum (FBS), penicillin (100 units/ml), and streptomycin ([…]) at 37°C in 5% CO2. The culture medium was changed every 2 days. Cells were passaged every 4–5 days with 0.25% trypsin (Gibco, USA). For enzyme‐linked immunosorbent assay (ELISA) (Hara et al, [2008]), A549 or HL‐60 cells were seeded in six‐well plates at a density of 1 × 10^5 cells/well and were incubated at 37°C in 5% CO2 overnight. Medium was aspirated and replaced with fresh complete DMEM supplemented with 10% FBS or serum‐free medium, both containing different concentrations of polypeptides for 24 h. Then, the supernatants were harvested for quantification of the IL‐8 amount in A549 by the Human CXCL8/IL‐8 Quantikine ELISA Kit (R&D Systems Inc., Minneapolis, MN, USA) and the MCP‐1 amount in HL‐60 by the Human MCP‐1 ELISA Kit (Boster Biological Technology Co., Ltd, Wuhan, China) as per the manufactures’ instructions.

[9] = test system: SM membrane; test: Membrane permeability assay (propidium iodide); format: cell-based, Streptococcus mutans; conditions: 10 × C L; 5 × 10^5 cells in PBS pH 7.3, 1 μM PI
Protocol: Fluorescence was measured with the F‐4500 FL spectrophotometer (Hitachi High‐Technology Company, Japan).

CC[C@H](C)[C@@H]1NC(=O)[C@H](CCCCN)NC(=O)CNC(=O)[C@H](CCCNC(=N)N)NC(=O)[C@@H]2CSSC[C@H](NC(=O)CNC(=O)[C@H](Cc3ccccc3)NC(=O)CN)C(=O)N3CCC[C@H]3C(=O)N[C@@H](Cc3c[nH]c4ccccc34)C(=O)N[C@@H](CC(N)=O)C(=O)N[C@@H](C)C(=O)N[C@@H](Cc3ccc(O)cc3)C(=O)N[C@@H](CCC(=O)O)C(=O)N[C@H]3CSSC[C@H](NC(=O)[C@H]([C@@H](C)O)NC(=O)[C@H](CCC(N)=O)NC(=O)[C@H](CCCNC(=N)N)NC1=O)C(=O)N[C@@H](Cc1c[nH]cn1)C(=O)N[C@H](C(=O)N[C@@H](Cc1ccc(O)cc1)C(=O)O)CSSC[C@H](NC(=O)[C@H](Cc1c[nH]cn1)NC(=O)[C@H](CCCNC(=N)N)NC(=O)[C@H](CC(=O)O)NC3=O)C(=O)N[C@@H](C(C)C)C(=O)N[C@@H](CO)C(=O)N[C@@H](CCCCN)C(=O)NCC(=O)N[C@@H](Cc1ccc(O)cc1)C(=O)N[C@@H]([C@@H](C)O)C(=O)NCC(=O)NCC(=O)N[C@@H](CC(N)=O)C(=O)N2 [AMSIN] (H-GFGCPWNAYECDRHCVSKGYTGGNCRGKIRQTCHCY-OH; disulfide 4-25, 11-33, 15-35; N-terminus and C-terminus assumed)
Activity in serum compared with in H2O [1]: slight decrease
Lethal concentration (C L) [2]: 1.07 µM
Viability of HEK 293 [3]: did not affect the viability
Complex with UMP by CD absorption signatures [4]: a complex was formed
Cell shape by scanning electron microscopy [5]: deformation of the cell shape
Viable SM cells in killing kinetics ([6]; 0 min, start 1 × 10^8 CFU/ml): 8 Log10 (CFU/mL)
Viable SM cells in killing kinetics ([6]; 15 min): 9 Log10 (CFU/mL)
Viable SM cells in killing kinetics ([6]; 30 min): 8.9 Log10 (CFU/mL)
Viable SM cells in killing kinetics ([6]; 120 min): 8.7 Log10 (CFU/mL)
Viable SM cells in killing kinetics ([6]; 240 min): 8.5 Log10 (CFU/mL)
Hemolysis (%) ([7]; 6.25 μM, absorbance 570 nm, 100% = 1% Triton X‐100, technical replicate 1): 1.49%
Hemolysis (%) ([7]; 6.25 μM, technical replicate 2): 1.24%
Hemolysis (%) ([7]; 6.25 μM, technical replicate 3): 1.65%
Hemolysis (%) ([7]; 12.5 μM, technical replicate 1): 2.48%
Hemolysis (%) ([7]; 12.5 μM, technical replicate 2): 1.98%
Hemolysis (%) ([7]; 12.5 μM, technical replicate 3): 2.04%
Hemolysis (%) ([7]; 25 μM, technical replicate 1): 6.96%
Hemolysis (%) ([7]; 25 μM, technical replicate 2): 5.2%
Hemolysis (%) ([7]; 25 μM, technical replicate 3): 5.2%
IL-8 ([8]; FBS-containing medium, 25 μg/mL, replicate 1): 93 pg/mL
IL-8 ([8]; FBS-containing medium, 25 μg/mL, replicate 2): 101 pg/mL
IL-8 ([8]; FBS-containing medium, 25 μg/mL, replicate 3): 99 pg/mL
IL-8 ([8]; FBS-containing medium, 50 μg/mL, replicate 1): 116 pg/mL
IL-8 ([8]; FBS-containing medium, 50 μg/mL, replicate 2): 121 pg/mL
IL-8 ([8]; FBS-containing medium, 50 μg/mL, replicate 3): 122 pg/mL
IL-8 ([8]; FBS-containing medium, 100 μg/mL, replicate 1): 111 pg/mL
IL-8 ([8]; FBS-containing medium, 100 μg/mL, replicate 2): 103 pg/mL
IL-8 ([8]; FBS-containing medium, 100 μg/mL, replicate 3): 106 pg/mL
IL-8 ([8]; Serum-Free medium, 25 μg/mL, replicate 1): 51 pg/mL
IL-8 ([8]; Serum-Free medium, 25 μg/mL, replicate 2): 40 pg/mL
IL-8 ([8]; Serum-Free medium, 25 μg/mL, replicate 3): 42 pg/mL
IL-8 ([8]; Serum-Free medium, 50 μg/mL, replicate 1): 40 pg/mL
IL-8 ([8]; Serum-Free medium, 50 μg/mL, replicate 2): 48 pg/mL
IL-8 ([8]; Serum-Free medium, 50 μg/mL, replicate 3): 42 pg/mL
IL-8 ([8]; Serum-Free medium, 100 μg/mL, replicate 1): 67 pg/mL
IL-8 ([8]; Serum-Free medium, 100 μg/mL, replicate 2): 78 pg/mL
IL-8 ([8]; Serum-Free medium, 100 μg/mL, replicate 3): 67 pg/mL
Effect on bacterial membrane integrity (propidium iodide fluorescence) [9]: did not impair the integrity of bacterial membrane
